This note sets out measurements from patent US20230399327A1, “HIGH ACTIVITY HPK1 KINASE INHIBITOR” (ADLAI NORTYE BIOPHARMA CO., LTD., priority 2020, published 2023).

As a reminder, the IC50 is the concentration that gives 50% inhibition. Low readings indicate higher potency, high ones lower potency.

Structures are written as SMILES. Bounds are passed on as bounds.

Sequence of HPK1 kinase (Q92918 whole entry): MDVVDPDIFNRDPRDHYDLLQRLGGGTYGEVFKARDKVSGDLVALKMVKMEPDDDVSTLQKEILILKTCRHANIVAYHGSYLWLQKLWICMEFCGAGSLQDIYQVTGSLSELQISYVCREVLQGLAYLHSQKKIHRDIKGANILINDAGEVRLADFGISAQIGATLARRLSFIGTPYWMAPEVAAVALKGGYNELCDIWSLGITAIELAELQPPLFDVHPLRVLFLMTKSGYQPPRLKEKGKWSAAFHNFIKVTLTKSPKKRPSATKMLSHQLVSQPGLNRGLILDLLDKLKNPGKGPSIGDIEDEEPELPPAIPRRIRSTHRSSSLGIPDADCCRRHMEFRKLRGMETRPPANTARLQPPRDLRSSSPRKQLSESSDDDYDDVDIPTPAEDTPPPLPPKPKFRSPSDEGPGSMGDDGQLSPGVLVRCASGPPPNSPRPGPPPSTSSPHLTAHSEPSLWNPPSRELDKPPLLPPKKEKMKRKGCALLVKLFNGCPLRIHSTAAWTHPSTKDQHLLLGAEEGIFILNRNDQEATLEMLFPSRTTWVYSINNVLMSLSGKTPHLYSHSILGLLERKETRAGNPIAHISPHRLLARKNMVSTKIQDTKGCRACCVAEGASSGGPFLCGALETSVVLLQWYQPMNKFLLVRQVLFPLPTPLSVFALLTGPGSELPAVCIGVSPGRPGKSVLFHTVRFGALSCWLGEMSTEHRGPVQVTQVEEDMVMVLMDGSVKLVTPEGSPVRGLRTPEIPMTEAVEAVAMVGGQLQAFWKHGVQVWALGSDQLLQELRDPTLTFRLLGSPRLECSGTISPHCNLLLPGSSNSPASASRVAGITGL

In the assay the target is HPK1 kinase (Homo sapiens (Human), UniProt Q92918). As to the kind of experiment: HPK1 kinase activity inhibition (ADP-Glo Kinase Assay). The format is biochemical. As to conditions: HPK1, MBP substrate, ATP, 25° C. 60 min. The protocol:
Test Example 1: Detection of Compound's Ability to Inhibit HPK1 Kinase Activity (Method 1)
The specific operation is as follows: configure the enzymatic reaction system buffer (10 mM MOPS, pH 7.2, 5 mM β-glycerol-phosphate, 10 mM MgCl2, 0.8 mM EDTA, 2 mM EGTA, 0.1 mM DTT); the test compound (1 mM the compound stock solution in DMSO) was diluted with buffer to the highest concentration of 60 uM (containing 6% DMSO), and the compound with a concentration of 60 μM was initially diluted 5 times with a buffer containing 6% DMSO for a total of 8 points of gradient concentration; then dilute HPK1 kinase to 30 nM in buffer. Add 2 μl of HPK1 kinase diluent to each well of a Greiner 384-well microplate (Cat. No. 784075), and add 2 μl of buffer to the control well; add 1 μl of the diluted compound to the reaction well after brief centrifugation, and add 1 μl buffer solution containing 6% DMSO to the control well; after short centrifugation, place in a 25° C. constant temperature incubator (Shanghai Yiheng Scientific Instrument Co., Ltd., Cat. No.: LRH-150) and incubate for 20 minutes. Add 3 μl of reaction substrate (10 μM MBP and 20 μM ATP dissolved in distilled water) to each well, briefly centrifuge and incubate in a constant temperature incubator at 25° C. for 60 min, and use ADP-Glo Kinase Assay Kit to detect the enzymatic reaction activity, ADP-Glo Kinase Assay Kit detection is carried out according to the operating instructions of the kit. Data are described using the half maximal inhibitory concentration IC50 of the compound.
`CCOc1nc2c(cc1Nc1ncc3cccc(-c4ccc(=O)n(C)c4)c3n1)CN(C)CC2` [Example 54, 5-(2-((2-ethoxy-6-methyl-5,6,7,8-tetrahydro-1,6-naphthyridin-3-yl)amino)quinazolin-8-yl)-1-methylpyridin-2(1H)-one] came in with a half-inhibitory concentration (IC50) of 21.7 nM. This lies in the double-digit nanomolar range. Then `CCOc1nc2c(cc1Nc1ncc3cccc(-c4cnn(C)c4C)c3n1)CN(C)CC2` [Example 55, 8-(1,5-dimethyl-1H-pyrazol-4-yl)-N-(2-ethoxy-6-methyl-5,6,7,8-tetrahydro-1,6-naphthyridin-3-yl)quinazolin-2-amine], with 0.66 nM; and `CCOc1nc2c(cc1Nc1ncc3ccnc(N[C@@H](CO)C(C)(C)C)c3n1)CN(C)CC2` [Example 57, (R)-2-((2-((2-ethoxy-6-methyl-5,6,7,8-tetrahydro-1,6-naphthyridin-3-yl)amino)pyrido[3,4-d]pyrimidin-8-yl)amino)-3,3-dimethylbutan-1-ol], with 0.25 nM; and `CCOc1nc2c(cc1Nc1ncc3ccnc(N[C@H](C)C(C)(C)C)c3n1)CN(C)CC2` [Example 58, (R)—N8-(3,3-dimethylbut-2-yl)-N2-(2-ethoxy-6-methyl-5,6,7,8-tetrahydro-1,6-Naphthyridin-3-yl)pyrido[3,4-d]pyrimidine-2,8-diamine], with less than 0.1 nM.

Compound `COc1nc2c(cc1Nc1ncc3cccc(Cc4ccccc4)c3n1)CN(C)CC2` [Example 59, 8-benzyl-N-(2-methoxy-6-methyl-5,6,7,8-tetrahydro-1,6-naphthyridin-3-yl)quinazolin-2-amine] returned an IC50 of less than 0.1 nM. For the compound `Cc1c(-c2cccc3cnc(Nc4cc5c([nH]c4=O)CCN(C)C5)nc23)cnn1C` [Example 61, 3-((8-(1,5-dimethyl-1H-pyrazol-4-yl)quinazolin-2-yl)amino)-6-methyl-5,6,7,8-tetrahydro-1,6-naphthyridin-2(1H)-one], the concentration for half-maximal inhibition (IC50) was less than 0.1 nM.

`COc1ccccc1-c1nccc2cnc(Nc3cc4c([nH]c3=O)CCN(C)C4)nc12` [Example 62, 3-((8-(2-methoxyphenyl)pyrido[3,4-d]pyrimidin-2-yl)amino)-6-methyl-5,6,7,8-tetrahydro-1,6-naphthyridin-2(1H)-one] had an IC50 of 23.1 nM.

Consider `CN1CCc2[nH]c(=O)c(Nc3ncc4ccnc(N5CCCCC5)c4n3)cc2C1` [Example 63, 6-methyl-3-((8-(piperidin-1-yl)pyrido[3,4-d]pyrimidin-2-yl)amino)-5,6,7,8-tetrahydro-1,6-naphthyridin-2(1H)-one], for which inhibition was half-maximal at 31.3 nM (IC50). The compound `CN1CCc2[nH]c(=O)c(Nc3ncc4ccnc(NCC(C)(C)C)c4n3)cc2C1` [Example 64, 6-methyl-3-((8-(neopentylamino)pyrido[3,4-d]pyrimidin-2-yl)amino)-5,6,7,8-tetrahydro-1,6-naphthyridin-2(1H)-one] gave an IC50 of less than 0.1 nM. Then `CCOc1nc2c(cc1Nc1ncc3ccnc(N4CC(C)(C)C4)c3n1)CN(C)CC2` [Example 65, 8-(3,3-dimethylazetidin-1-yl)-N-(2-ethoxy-6-methyl-5,6,7,8-tetrahydro-1,6-Naphthyridin-3-yl)pyrido[3,4-d]pyrimidin-2-amine], with 20.1 nM; and `CCOc1nc2c(cc1Nc1ncc3cccc(-c4c(C)nn(C)c4C)c3n1)CN(C)CC2` [Example 67, N-(2-ethoxy-6-methyl-5,6,7,8-tetrahydro-1,6-naphthyridin-3-yl)-8-(1,3,5-trimethyl-1H-pyrazol-4-yl)quinazolin-2-amine], with 23.3 nM; and `CN1CCc2c(cc(Nc3ncc4ccnc(N5CCCCC5)c4n3)c(=O)n2C)C1` [Example 68, 1,6-dimethyl-3-((8-(piperidin-1-yl)pyrido[3,4-d]pyrimidin-2-yl)amino)-5,6,7,8-tetrahydro-1,6-naphthyridin-2(1H)-one], with 1.47 nM. Under `CN1CCc2c(cc(Nc3ncc4ccnc(N5CCOCC5)c4n3)c(=O)n2C)C1` [Example 69, 1,6-dimethyl-3-((8-morpholinopyrido[3,4-d]pyrimidin-2-yl)amino)-5,6,7,8-tetrahydro-1,6-naphthyridin-2(1H)-one] stands 2.19 nM; under `CN1CCc2[nH]c(=O)c(Nc3ncc4ccnc(N5CCC(F)(F)CC5)c4n3)cc2C1` [Example 74, 3-((8-(4,4-difluoropiperidin-1-yl)pyrido[3,4-d]pyrimidin-2-yl)amino)-6-methyl-5,6,7,8-tetrahydro-1,6-naphthyridin-2(1H)-one], 15.8 nM. `CN1CCc2[nH]c(=O)c(Nc3ncc4ccnc(C5=CCCCC5)c4n3)cc2C1` [Example 75, 3-((8-(cyclohex-1-en-1-yl)pyrido[3,4-d]pyrimidin-2-yl)amino)-6-methyl-5,6,7,8-tetra hydro-1,6-naphthyridin-2(1H)-one] had an IC50 of less than 0.1 nM. Turning to `CN1CCc2c(cc(Nc3ncc4ccnc(N5CCCCCC5)c4n3)c(=O)n2C)C1` [Example 80, 3-((8-(azepan-1-yl)pyrido[3,4-d]pyrimidin-2-yl)amino)-1,6-dimethyl-5,6,7,8-tetrahydro-1,6-naphthyridin-2(1H)-one], the midpoint of inhibition, the IC50, lay at 0.61 nM. Under `CN1CCc2c(cc(Nc3ncc4ccnc(C5=CCCCC5)c4n3)c(=O)n2C)C1` [Example 81, 3-((8-(cyclohex-1-en-1-yl)pyrido[3,4-d]pyrimidin-2-yl)amino)-1,6-dimethyl-5,6,7,8-tetrahydro-1,6-naphthyridin-2(1H)-one] stands 0.23 nM.

With `Cn1c2c(cc(Nc3ncc4ccnc(N5CCC(F)(F)CC5)c4n3)c1=O)CN(CCO)CC2` [Example 82, 3-((8-(4,4-difluoropiperidin-1-yl)pyrido[3,4-d]pyrimidin-2-yl)amino)-6-(2-hydroxyethyl)-1-methyl-5,6,7,8-tetrahydro-1,6-naphthyridin-2(1H)-one], the IC50 was less than 0.1 nM. Under `Cn1c2c(cc(Nc3ncc4ccnc(N5CCCCC5)c4n3)c1=O)CN(CCO)CC2` [Example 83, 6-(2-hydroxyethyl)-1-methyl-3-((8-(piperidin-1-yl)pyrido[3,4-d]pyrimidin-2-yl)amino)-5,6,7,8-tetrahydro-1,6-naphthyridin-2(1H)-one] stands 0.16 nM. Then `Cn1c2c(cc(Nc3ncc4ccnc(N5CCSCC5)c4n3)c1=O)CN(CCO)CC2` [Example 84, 6-(2-hydroxyethyl)-1-methyl-3-((8-thiomorpholinopyrido[3,4-d]pyrimidin-2-yl)amino)-5,6,7,8-tetrahydro-1,6-naphthyridin-2(1H)-one], with 0.43 nM.

`CN1CCc2c(cc(Nc3ncc4ccnc(N5CC6CC6C5)c4n3)c(=O)n2C)C1` (stereo not shown) [Example 86, 3-((8-(3-azabicyclo[3.1.0]hex-3-yl)pyrido[3,4-d]pyrimidin-2-yl)amino)-1,6-dimethyl-5,6,7,8-tetrahydro-1,6-naphthyridin-2(1H)-one]: the half-maximal inhibitory concentration (IC50) stood at 56.3 nM. Under `COCCn1c2c(cc(Nc3ncc4ccnc(N5CCC(F)(F)CC5)c4n3)c1=O)CN(C)CC2` [Example 87, 3-((8-(4,4-difluoropiperidin-1-yl)pyrido[3,4-d]pyrimidin-2-yl)amino)-1-(2-methoxyethyl)-6-methyl-5,6,7,8-tetrahydro-1,6-naphthyridin-2(1H)-one] stands 19.9 nM.
